Experiment [1] deals with MPZ. The experiment can be described thus: qPCR of transfected MPZ transcript (primers 296+297), normalized to GAPDH. In kind it is cell-based. Particulars: qPCR Rep 2, WT MPZ GFP 1000 ng, or empty traffo + Tg; for 2^-(deltaCq), MPZ: vs avg GAPDH.
Experiment [2] has as its system GADD34 mRNA in HCT116 cells. The experiment can be described thus: qPCR of GADD34 transcript. The conditions noted are these: HCT116, 100 nM for 24 hours, norm to GAPDH. In kind it is cell-based, Homo sapiens.
Experiment [3] has as its system PARP / caspase 8 / caspase 3 in HCT116 cells. Put plainly: Western blot of HCT116 lysates (PARP, caspase 8 and caspase 3 cleavage, DR5 level). In kind it is cell-based, Homo sapiens. The conditions noted are these: HCT116, 24 hr, titration of construct. How it is done:
Media and cells for each sample were collected by cell scraping into cold PBS followed by a subsequent wash with 1 ml of cold PBS. The cell pellet was then resuspended in cold lysis buffer (30 mM HEPES pH 7.2, 150 mM NaCl, 1% Triton X100, 1x Roche protease inhibitor) and lysed via needle shearing on ice. Samples were centrifuged at 1000xg for 5 min, and the supernatants were mixed with sample buffer to a final concentration of 1% SDS, 62.5 mM Tris-HCl pH 6.8, 10% glycerol, 0.1% bromophenol blue, 50 mM DTT. Samples were boiled at 95°C and loaded on SDS-PAGE gels (GenScript). Samples were subsequently transferred onto nitrocellulose membranes, blocked with Odyssey buffer (Licor) for 1 hr at RT, and probed with primary antibodies diluted 1:1000 (unless otherwise specified) in Licor Odyssey buffer supplemented with 0.1% Tween 20% at 4°C overnight.
Bound primary antibodies were probed by HRP-conjugated secondary antibodies (Amersham, Piscataway, NJ, 1:10000) using enhanced chemiluminescence (SuperSignal; Thermo Scientific, Waltham, MA) detected by standard film or through the ChemiDoc XRS+ Imaging System (Bio-Rad).

On to `C/C=C(/C)C(=O)O[C@H]1C(C)=C2[C@H]([C@@H]1OC(=O)CCCCCCC)[C@@](C)(OC(C)=O)C[C@H](OC(=O)CCC)[C@@]1(O)[C@H]2OC(=O)[C@@]1(C)O` [thapsigargin, reference compound], for which the “avg. fold induction relative to WT MPZ DMSO, MPZ” value in experiment [1] (mean of 3) was found to be 9.712 fold. The “fold induction relative to WT MPZ DMSO, MPZ” value in experiment [1] (replicate 1) turned out to be 3.402 fold; in experiment [1] (replicate 2) it was 14.9405 fold; in experiment [1] (replicate 3) it was 10.7918 fold. Moreover, the “2^-(deltaCq), MPZ” value in experiment [1] (replicate 1) amounted to 0.0001664; in experiment [1] (replicate 2), 0.0007308; in experiment [1] (replicate 3), 0.0005279. Moreover, the “avg. fold induction, GADD34” value in experiment [2] came out at 11.3183.
Turning to “FTWRYQPEGGRDAISIFHYA [MPZ-ecto peptide-eGFP, expressed construct: MPZ ectodomain replaced by the MPZ-ecto peptide, GFP-tagged]”, the “PARP cleavage and caspase activity” value is “induced more PARP cleavage and caspase activity than similar or higher levels of the peptides containing Glu substitutions” in experiment [3]; “PARP cleavage and caspase activity measured in cell lysates were increased” in experiment [3] (listed as WT MPZ-ecto).

These data come from paper PMC7041945, “Misfolded proteins bind and activate death receptor 5 to trigger apoptosis during unresolved endoplasmic reticulum stress” (eLife, 2020).
